Assay [1] has as its target T1, ALDH1a3 (Homo sapiens, UniProt P47895).
T1 sequence (P47895 1-512): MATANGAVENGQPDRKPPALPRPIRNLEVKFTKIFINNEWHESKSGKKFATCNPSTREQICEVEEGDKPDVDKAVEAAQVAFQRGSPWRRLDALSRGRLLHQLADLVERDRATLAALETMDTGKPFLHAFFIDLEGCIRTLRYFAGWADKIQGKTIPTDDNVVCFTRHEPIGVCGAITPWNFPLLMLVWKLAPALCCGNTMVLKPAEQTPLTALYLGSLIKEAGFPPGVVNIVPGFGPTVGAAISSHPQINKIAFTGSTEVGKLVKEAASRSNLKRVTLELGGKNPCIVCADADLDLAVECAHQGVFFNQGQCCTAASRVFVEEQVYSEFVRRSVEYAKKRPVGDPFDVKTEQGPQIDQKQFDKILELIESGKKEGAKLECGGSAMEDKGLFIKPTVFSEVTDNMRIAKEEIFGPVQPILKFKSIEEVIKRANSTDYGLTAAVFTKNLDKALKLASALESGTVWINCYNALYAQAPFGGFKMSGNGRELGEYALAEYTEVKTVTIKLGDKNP
The experiment in a line: Aldh1a3 enzyme inhibition assay, recombinant hALDH1a3. Also noted: made in house; host or cells: E. coli BL21-DE3, pET-Aldh1a3. It counts as biochemical. The settings on record: resorufin fluorescence, 20° C. An excerpt: (§1) Recombinant enzyme and inhibitor added immediately before assay. Reaction rate measured by resorufin fluorescence.

For assay [2], the target named is T2, mALDH1a3 (Mus musculus, UniProt Q9JHW9).
T2 construct: made in house; host or cells: E. coli BL21-DE3, pET-Aldh1a3
T2 sequence (Q9JHW9 1-512): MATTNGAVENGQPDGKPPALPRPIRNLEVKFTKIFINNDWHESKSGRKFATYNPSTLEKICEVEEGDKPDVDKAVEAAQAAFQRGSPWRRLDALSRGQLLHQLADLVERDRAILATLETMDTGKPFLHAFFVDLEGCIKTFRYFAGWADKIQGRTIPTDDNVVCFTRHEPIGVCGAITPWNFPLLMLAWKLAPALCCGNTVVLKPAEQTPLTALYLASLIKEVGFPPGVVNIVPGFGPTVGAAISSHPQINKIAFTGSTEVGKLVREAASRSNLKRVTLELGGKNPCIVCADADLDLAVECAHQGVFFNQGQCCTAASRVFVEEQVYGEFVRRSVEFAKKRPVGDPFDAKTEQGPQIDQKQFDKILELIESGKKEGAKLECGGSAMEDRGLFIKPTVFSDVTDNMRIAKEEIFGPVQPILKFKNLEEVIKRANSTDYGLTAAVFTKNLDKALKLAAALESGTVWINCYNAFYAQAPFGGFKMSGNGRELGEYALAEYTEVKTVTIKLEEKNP
The experiment in a line: Aldh1a3 enzyme inhibition assay, recombinant mALDH1a3. It counts as biochemical. The settings on record: resorufin fluorescence, 20° C.
Description: as §1

As usually defined, the IC50 is the concentration that gives 50% inhibition. On to `CC1(C)Cc2cc(Nc3cnc4ccccc4n3)ccc2NC1=O` [Compound 92, 3,3-dimethyl-6-(quinoxalin-2-ylamino)-1,4-dihydroquinolin-2-one], for which the IC50 in assay [1] and in assay [2] was 0.1 to 0.25 µM each time.

For the compound `CC1(C)Cc2cc(Nc3ncc4ccccc4n3)ccc2NC1=O` [Compound 93, 3,3-dimethyl-6-(quinazolin-2-ylamino)-1,4-dihydroquinolin-2-one], the IC50 in assay [1] and in assay [2] was 0.25 to 1 µM throughout.

As to `CC1(C)Cc2cc(Nc3ccc4ccncc4n3)ccc2NC1=O` [Compound 94, 3,3-dimethyl-6-(1,7-naphthyridin-2-ylamino)-1,4-dihydroquinolin-2-one], the IC50 was 1 to 5 µM in assay [1] and greater than 5 µM in assay [2].

With `CC1(C)Cc2cc(Nc3ccc4cnccc4n3)ccc2NC1=O` [Compound 95, 3,3-dimethyl-6-(1,6-naphthyridin-2-ylamino)-1,4-dihydroquinolin-2-one], the concentration for half-maximal inhibition (IC50) in assay [1] and in assay [2] was greater than 5 µM each time.

For `Cc1ccc(Nc2ccc3c(c2)CC(C)(C)C(=O)N3)nc1C` [Compound 96, 6-[(5,6-dimethyl-2-pyridyl)amino]-3,3-dimethyl-1,4-dihydroquinolin-2-one], the IC50 in assay [1] and in assay [2] was greater than 5 µM throughout.

As for `CC1(C)Cc2cc(Nc3ccc(Cl)c(Cl)n3)ccc2NC1=O` [Compound 97, 6-[(5,6-dichloro-2-pyridyl)amino]-3,3-dimethyl-1,4-dihydroquinolin-2-one], the IC50 was 1 to 5 µM in assay [1] and greater than 5 µM in assay [2].

On to `CC1(C)Cc2cc(Nc3nc4ccccc4[nH]3)ccc2NC1=O` [Compound 98, 6-(1H-benzimidazol-2-ylamino)-3,3-dimethyl-1,4-dihydroquinolin-2-one], for which the IC50 in assay [1] and in assay [2] was 1 to 5 µM each time.

With `CC1(C)Cc2cc(Nc3nc4ccccc4o3)ccc2NC1=O` [Compound 99, 6-(1,3-benzoxazol-2-ylamino)-3,3-dimethyl-1,4-dihydroquinolin-2-one], the IC50 in assay [1] and in assay [2] was 0.25 to 1 µM each time.

Consider `N#Cc1cccc2ncc(Nc3ccc4c(c3)CCC(=O)N4)cc12` [Compound 100, 3-[(2-oxo-3,4-dihydro-1H-quinolin-6-yl)amino]quinoline-5-carbonitrile], for which the IC50 in assay [1] and in assay [2] was greater than 5 µM throughout.

For the compound `Cc1cccc2ncc(Nc3ccc4c(c3)CCC(=O)N4)cc12` [Compound 101, 6-[(5-methyl-3-quinolyl)amino]-3,4-dihydro-1H-quinolin-2-one], the IC50 in assay [1] and in assay [2] was 1 to 5 µM throughout.

For the compound `O=S1(=O)CCc2cc(Nc3ccc4ccccc4n3)ccc2N1` [Compound 102], the IC50 in assay [1] and in assay [2] was greater than 5 µM throughout.

Turning to `CC1(C)Cc2cc(Nc3ccc4cnccc4c3)ccc2NC1=O` [Compound 103, 6-(6-isoquinolylamino)-3,3-dimethyl-1,4-dihydroquinolin-2-one], the IC50 in assay [1] and in assay [2] was greater than 5 µM each time.

In the case of `CC1(C)Cc2cc(Nc3ccc4ccncc4c3)ccc2NC1=O` [Compound 104, 6-(7-isoquinolylamino)-3,3-dimethyl-1,4-dihydroquinolin-2-one], the IC50 in assay [1] and in assay [2] was greater than 5 µM in each case.

Take `CC1(C)Cc2cc(NC3COc4ccccc4C3)ccc2NC1=O` (stereo not drawn) [Compound 105, 6-(chroman-3-ylamino)-3,3-dimethyl-1,4-dihydroquinolin-2-one]: the IC50 in assay [1] and in assay [2] was greater than 5 µM throughout.

On to `CC1(C)Cc2cc(NN3CCC(c4ccccc4)C3=O)ccc2NC1=O` (stereo not drawn) [Compound 106], for which the IC50 in assay [1] and in assay [2] was greater than 5 µM each time.

`CC1(C)Cc2cc(Nc3ncc4ccccc4n3)c(F)cc2NC1=O` [Compound 108, 7-fluoro-3,3-dimethyl-6-(quinazolin-2-ylamino)-1,4-dihydroquinolin-2-one]: the values for the IC50 in assay [1] and in assay [2] were 1 to 5 µM and 0.25 to 1 µM, respectively.

Take `CC1(C)Cc2cc(Nc3cnc4ccccc4n3)c(F)cc2NC1=O` [Compound 109, 7-fluoro-3,3-dimethyl-6-(quinoxalin-2-ylamino)-1,4-dihydroquinolin-2-one]: the IC50 was 0.1 to 0.25 µM in assay [1] and less than 0.1 µM in assay [2].

Consider `Cc1cccc2ccc(Nc3ccc4c(c3)CC(C)(C)C(=O)N4)nc12` [Compound 111], for which the IC50 in assay [1] and in assay [2] was greater than 5 µM in each case.

For the compound `CC1(C)Cc2cc(Nc3ccc4c(Cl)cccc4n3)ccc2NC1=O` [Compound 112, 6-[(5-chloro-2-quinolyl)amino]-3,3-dimethyl-1,4-dihydroquinolin-2-one], the IC50 in assay [1] and in assay [2] was 0.25 to 1 µM throughout.

Turning to `Cn1ccc2nc(Nc3ccc4c(c3)CC(C)(C)C(=O)N4)ccc21` [Compound 113, 3,3-dimethyl-6-[(1-methylpyrrolo[3,2-b]pyridin-5-yl)amino]-1,4-dihydroquinolin-2-one], the IC50 in assay [1] and in assay [2] was greater than 5 µM in each case.

On to `CC1(C)Cc2cc(Nc3ccc4c(c3)NC(=O)CC4)ccc2NC1=O` [Compound 114, 3,3-dimethyl-6-[(2-oxo-3,4-dihydro-1H-quinolin-7-yl)amino]-1,4-dihydroquinolin-2-one], for which the IC50 in assay [1] and in assay [2] was greater than 5 µM each time.

Turning to `CC1(C)Cc2cc(Nc3c[nH]c4ccccc4c3=O)ccc2NC1=O` [Compound 115, 3,3-dimethyl-6-[(4-oxo-1H-quinolin-3-yl)amino]-1,4-dihydroquinolin-2-one], the IC50 in assay [1] and in assay [2] was greater than 5 µM throughout.

Take `CC1(C)Cc2cc(Nc3nc(=O)c4ccccc4[nH]3)ccc2NC1=O` [Compound 116, 2-[(3,3-dimethyl-2-oxo-1,4-dihydroquinolin-6-yl)amino]-1H-quinazolin-4-one]: the figures for the IC50 in assay [1] and in assay [2] were 0.25 to 1 µM and 1 to 5 µM, respectively.

As to `CC1(C)Cc2cc(Nc3cnc4ccc(C(=O)O)cc4n3)ccc2NC1=O` [Compound 118, 3-[(3,3-dimethyl-2-oxo-1,4-dihydroquinolin-6-yl)amino]quinoxaline-6-carboxylic acid], the IC50 in assay [1] and in assay [2] was greater than 5 µM each time.

For the compound `O=C1CCc2cc(Oc3ncc4ccccc4n3)ccc2N1` [Compound 119, 6-quinazolin-2-yloxy-3,4-dihydro-1H-quinolin-2-one], the IC50 in assay [1] and in assay [2] was greater than 5 µM in each case.

On to `COC(=O)c1ccc2ncc(Nc3ccc4c(c3)CC(C)(C)C(=O)N4)nc2c1` [Compound 120, methyl 3-[(3,3-dimethyl-2-oxo-1,4-dihydroquinolin-6-yl)amino]quinoxaline-6-carboxylate], for which the IC50 in assay [1] and in assay [2] was greater than 5 µM throughout.

`CC1(C)Cc2cc(Nc3cccc(Cl)n3)ccc2NC1=O` [Compound 122, 6-[(6-chloro-2-pyridyl)amino]-3,3-dimethyl-1,4-dihydroquinolin-2-one]: the IC50 in assay [1] and in assay [2] was greater than 5 µM in each case.

Turning to `CC1(C)Cc2cc(Nc3ccc(Cl)cn3)ccc2NC1=O` [Compound 123, 6-[(5-chloro-2-pyridyl)amino]-3,3-dimethyl-1,4-dihydroquinolin-2-one], the IC50 in assay [1] and in assay [2] was greater than 5 µM in each case.

Turning to `CC1(C)Cc2cc(Nc3cc(Cl)c(Cl)cn3)ccc2NC1=O` [Compound 125, 6-[(4,5-dichloro-2-pyridyl)amino]-3,3-dimethyl-1,4-dihydroquinolin-2-one], the IC50 in assay [1] was 0.25 to 1 µM; in assay [2], greater than 5 µM.

As to `O=C1CCc2cc(Nc3cnc4ccccc4n3)ncc2N1` [Compound 126, 6-(quinoxalin-2-ylamino)-3,4-dihydro-1H-1,7-naphthyridin-2-one], the 50% inhibitory concentration (IC50) in assay [1] is 0.25 to 1 µM; in assay [2] it was less than 0.1 µM.

On to `CC1(C)Cc2cc(Nc3ccc4c(n3)CCCC4=O)ccc2NC1=O` [Compound 127, 3,3-dimethyl-6-[(5-oxo-7,8-dihydro-6H-quinolin-2-yl)amino]-1,4-dihydroquinolin-2-one], for which the IC50 in assay [1] is 1 to 5 µM; in assay [2], greater than 5 µM.

Regarding `Cc1nc(Nc2ccc3c(c2)CC(C)(C)C(=O)N3)nc2ccccc12` [Compound 132, 3,3-dimethyl-6-[(4-methylquinazolin-2-yl)amino]-1,4-dihydroquinolin-2-one], the IC50 in assay [1] and in assay [2] was 0.25 to 1 µM in each case.

Take `Cc1cc2ccccc2nc1Nc1ccc2c(c1)CC(C)(C)C(=O)N2` [Compound 134]: the IC50 in assay [1] and in assay [2] was 0.25 to 1 µM in each case.

Source of the values: patent US20230128402A1 (The Trustees of Princeton University, priority 2020, published 2023).
